Laboratory results as given in patent US6406853B1, “Interventions to mimic the effects of calorie restriction” (The Regents of the University of California, priority 1999, dated 2002).
Entries after “also recorded” stand apart in the source; their conditions may differ. Where two headings read alike, the source gives them in different places.

Legend:
hepatic gene expression = assay: Global hepatic gene expression profile (GeneChip arrays, correlation coefficients); assay type: in vivo, mice
Experimental: GeneChip oligonucleotide-based high-density array RNA expression assays were performed according to the standard Affrymetrix protocol. The biotinylated, fragmented cRNA was hybridized to the Mu11KsubA and Mu11KsubB GeneChip arrays (Affymetrix, Santa Clara, Calif.), which contain targets for more than 11,000 known mouse genes and ESTs. The arrays were washed, stained and scanned. Scanned image analysis and data quantification were performed using the Affymetrix GeneChip analysis suite v3.2 at default parameter settings. Resultant data were normalized by global scaling.
Data analysis. Data sets were normalized furher using GeneSpring 3.0 (Silicon Genetics, San Carlos, Calif.). Negative expression levels were forced to zero, and the expression data for each animal divided by the median of all experimental values for that chip above an expression level of 10. This step reduced cliip-to-chip signal variation. Fold change in expression was calculated by dividing the mean of the expression levels in the CR groups by the mean of the expression levels in the control group.

[1] = STZ-treated animals; general statement; cited from earlier work
GRP78 mRNA = assay: Hepatic GRP78 mRNA in fasted and refed mice (dot-blot); assay type: in vivo; details: liver; for GRP78 mRNA response to feeding (refed mice): fasted 48 h, i.p. injection 30 min before and 30 min after feeding, killed 1.5 h after feeding, dibutyryl-cAMP given with theophylline; for GRP78 mRNA in fasted mice: mice fasted 48 h, two i.p. injections; for postprandial induction of GRP78 mRNA in STZ-diabetic mice: STZ-induced diabetes combined with dibutyryl-cAMP and theophylline
Experimental: (§1) Retired male Swiss-Webster breeder mice were purchased from Jackson Laboratories. Beginning 30 days before the studies, the mice were fed Monday and Wednesday 11 g and Friday 16.6 g of the control diet daily at 0900 h. In fasting-feeding studies, mice were deprived of food for 48 h, fed 5.5 g of the control diet at 0900 h, and killed 90 min later. The food was consumed within 30 min. Diabetes was induced by three weekly intraperitoneal injections of streptozotocin [10 mg/100 g body weight (b.w.)] in 50 mM sodium citrate, pH 4.5. Mice were diabetic one week after the last injection. Only mice with blood glucose level higher than 3 mg/ml were used. Mice injected with equivalent volumes of sodium citrate served as controls for the STZ-diabetic mice. Adrenalectomized and sham-operated mice were purchased from Jackson Laboratories. Dibutyryl cAMP (Sigma; 18 mg.100 g b.w.), and theophylline (Sigma; 3 mg/100 g b.w), glucagon (Sigma; 300 μg/100 g b.w.), dexamethasone (Sigma; 125 μg/100 g b.w), cycloheximide (Sigma; 4 mg.100 g b.w.), and puromycin (Sigma; 10 mg.100 g b.w.), were administered intraperitonealy to mice as specified in the figure legends. Mice received two doses of each drug or drug combination. The first injection was administered 30 min before feeding, and the second injection was administered 30 min after feeding. Mice were killed 1.5 h after the start of feeding. Drug-injected mice consumed similar amounts of food as control animals during the feeding period. All animal use protocols were approved by the institutional animal use committee of the University of California, Riverside.
Mice were killed and the livers, kidneys, and muscle were removed. Muscle from the hind legs and back was removed and pooled for each animal. Tissues were flash frozen in liquid nitrogen. Approximately 0.2 g of frozen tissue was homogenized for 40 s in 4 ml of TRI Reagent (Molecular Research Center, Cincinnati, Ohio) using a Tekmar Tissuemizer (Tekmar, Cincinnait, Ohio) at a setting of 55. RNA was isolated as described by the TRI Reagent supplier. RNA was resuspended in FORMAzol (Molecular Research Center) and Northern and dot blots were performed using 20 and 10 μg of RNA respectively. The RNA was analyzed using Northern blots to verify its integrity. Dot blots were used to quantify mRNA levels (24; 27). Specific mRNA levels were normalized to the level of total RNA and/or mRNA present in each sample using hybridization with radiolabeled complementary DNA to 18S rRNA and/or transcription factor S-II, as indicated in the figure legends (12; 27). The murine ERp72 2.5 kb cDNA was excised with BamHI from pcD72-1 (19). The 1235 bp murine GRP75 coding fragment was excised with HindIII from pG7z-PBP1.8 (6). A 1.5 kb coding fragment of GRP78 cDNA was produced by digestion of p3C5 with EcoRI and PstI (15). A 1.4 kb hamster GRP94 coding fragment was produced by EcoRI and Sa/K digestion of p4A3 (15). A 664 bp coding fragment of rat calreticulin (nucleotides 148 to 812) was produced by PCR from GT10.U1 (23). The entire 2.4 kb cDNA of murine PDI was excised from pGEM59.4 with SacI and BamHII (19). A 1 kb coding fragment of hamster GRP170 cDNA was excised with EcoRI and XhoI from pCRtmII (16). The 1.9 kb cDNA of murine ERp57 was excised with HindIII and SstI from pERp61 (18). The 1 kb cDNA of murine HSC70 was excised with PstI from phsc1.5 (9). The 1.3 kb PEPCK coding fragment was produced by SphI followed by SalI digestions of pGEM5ZEP (a gift from Dr. Ganner D. K. Vanderbilt University School of Medicine, Nashville, Tenn.). The fragments were isolated by agarose gel electrophoresis and radioactively labeled using a ^T7QuickPrime Kit (Pharmacia) according to the manufacturer's instructions.

Life span of mice = assay type: in vivo; details: mice fed aminoguanidine
PEPCK mRNA = assay: Hepatic PEPCK mRNA in fasted and refed mice (positive control); assay type: in vivo; details: liver; mice fasted 48 h or refed
Experimental: as §1, with “The first injection was administered 30 min before feeding, and the second injection was administered 30 min after feeding. Mice were killed 1.5 h after the start of feeding. Drug-injected mice consumed similar amounts of food as control animals during the feeding period. All animal use protocols were approved by the institutional animal use committee of the University of California, Riverside.” left out
Mice were killed and the livers, kidneys, and muscle were removed. […] The RNA was analyzed using Northern blots to verify its integrity. Dot blots were used to quantify mRNA levels (24; 27). […]

CN(N=O)C(=O)N[C@H]1C(O)O[C@H](CO)[C@@H](O)[C@@H]1O (mixture of isomers) [STZ, streptozotocin]
hepatic gene expression compared with young CR and young control mice (hepatic gene expression; STZ-diabetic mice, diabetic about 4 weeks): very different
effect on life span [1]: shortens
GRP78 mRNA response to feeding (refed mice) (GRP78 mRNA): blunted response; also recorded: significantly reduced
GRP78 mRNA in fasted mice (GRP78 mRNA): did not modify

N=C(N)NN [aminoguanidine, Aminoguanidine]
correlation of gene expression with old CR or old control mice (hepatic gene expression; mice fed aminoguanidine): did not correlate
effect on hepatic gene expression (hepatic gene expression; mice fed aminoguanidine): large effect
effect on life span (Life span of mice): little or no effect

C[C@@H]1C[C@@H]([C@H](O)CC2CC(=O)NC(=O)C2)C(=O)[C@@H](C)C1 [cycloheximide]
PEPCK mRNA in both fasted and refed mice (PEPCK mRNA): increased
GRP78 mRNA response to feeding (refed mice) (GRP78 mRNA): strongly induced
GRP78 mRNA in fasted mice (GRP78 mRNA): strongly induced; also recorded: induced the mRNA to the same extent

CCCC(=O)Nc1ncnc2c1ncn2[C@@H]1O[C@@H]2COP(=O)(O)O[C@H]2[C@H]1OC(=O)CCC [dibutyryl cAMP, Dibutyryl cAMP]
postprandial induction of GRP78 mRNA in STZ-diabetic mice (GRP78 mRNA; listed as cAMP): obliterated
postprandial induction of GRP78 mRNA in STZ-diabetic mice (GRP78 mRNA; listed as dibutyryl-cAMP): absence of a feeding response
GRP78 mRNA response to feeding (refed mice) (GRP78 mRNA): reduced the response
GRP78 mRNA response to feeding (refed mice) (GRP78 mRNA; listed as dibutyryl-cAMP): blunted

COc1ccc(C[C@H](N)C(=O)N[C@H]2[C@@H](O)[C@H](n3cnc4c(N(C)C)ncnc43)O[C@@H]2CO)cc1 [puromycin]
GRP78 mRNA response to feeding (refed mice) (GRP78 mRNA): fully induced
GRP78 mRNA in fasted mice (GRP78 mRNA): modestly induced; also recorded: partial induction

glucagon
GRP78 mRNA response to feeding (refed mice) (GRP78 mRNA): reduced the response; also recorded: blunted
